Values of other authors, collected in US20150328215A1, “STABLE AMORPHOUS RALTEGRAVIR POTASSIUM PREMIX AND PROCESS FOR THE PREPARATION THEREOF” (priority 2012, published 2015).

Legend:
[1] = in vivo
[2] = water

| SMILES | bioavailability compared with Raltegravir free base [1] | aqueous solubility [2] |
| --- | --- | --- |
| Cc1nnc(C(=O)NC(C)(C)c2nc(C(=O)NCc3ccc(F)cc3)c([O-])c(=O)n2C)o1.[K+] [Form 1] | superior bioavailability |  |
| Cc1nnc(C(=O)NC(C)(C)c2nc(C(=O)NCc3ccc(F)cc3)c(O)c(=O)n2C)o1 [Raltegravir] |  | poor aqueous solubility |
| Cc1nnc(C(=O)NC(C)(C)c2nc(C(=O)NCc3ccc(F)cc3)c([O-])c(=O)n2C)o1.[K+] [potassium salt of Raltegravir, potassium N-(4-fluorobenzyl)-5-hydroxy-1-methyl-2-(1-methyl-1-{[(5-methyl-1,3,4-oxadiazol-2-yl)carbonyl]amino}ethyl)-6-oxo-1,6-dihydropyrimidine-4-carboxamide] |  | significantly more soluble in water |
